Consider 14 molecules from publication PMC4569013, “Massive Bioaccumulation and Self‐Assembly of Phenazine Compounds in Live Cells” (Advanced Science, 2015).

In series [1] the test system is RAW264.7 macrophages. Description: Cell accumulation experiment, transmitted light microscopy of cellular staining pattern. Type of series: cell-based. The note with it: for Inferred uptake: inferred from staining pattern after 72 hour incubation; for Observed cellular staining pattern (Notes): live cells, 72 hour incubation, 5 × 10^−6 M (2.5 × 10^−6 M for I); for Cellular staining relative to clofazimine: live macrophages, 72 h; for Staining in fixed cells: methanol-fixed cells incubated 72 h with compound (control). The method, then: Cell Accumulation Experiments and Transmitted Light Microscopic Examination: […] After a 24 h incubation (37 °C, 5% CO2), cells were incubated with solution of clofazmine or its chemical derivatives (300 μL of 5 × 10^−6 m concentration; measured cell viability ranging from 85% to 97% for all compounds tested at this concentration; Figure 1) in DMEM (no phenol red; plus 1 × 10^−3 M sodium pyruvate and 5% FBS). For Compound “I,” 2.5 × 10^−6 M of compound solution in media was used for the RAW 264.7 macrophages incubation because of lower cell viability at higher concentrations (IC50 = (3.95 ± 0.11) × 10^−6 M). A solution of clofazmine or other chemical derivatives was made by a diluting stock solutions (2.5 × 10^−3 M in DMSO; 10 × 10^−3 M stock in DMSO were stored at −80 °C for further use) into DMEM with 5% FBS. […] The extracellular concentration of each compound in each well was maintained by daily replacement of the compound‐containing media. After 72 h of incubation with clofazmine or its derivatives, compound‐containing media were removed and cells were washed twice with media. Live cells in the chambered glasses were examined under inverted transmitted light microscopy (Nikon Eclipse Ti microscope) with a 40× objective and color camera. As a control experiment, fixed cells were also microscopically examined after incubation with the compounds. Cells were seeded on the chambered cover glasses at the density of 1.5 × 10^4 cells cm^−2 (RAW264.7 macrophages) or 2.5 × 10^4 cells cm^−2 (MDCK epithelial cells). After an overnight incubation (37 °C, 5% CO2), media was removed from the wells and cold methanol (−20 °C) was added to each well. After 30 s, remaining methanol was removed by washing with media with 5% FBS. Fixed cells were incubated (37 °C, 5% CO2) with clofazmine or derivatives (300 μL of 5 × 10^−6 M; 2.5 × 10^−6 M for I) in media with 5% FBS. After 72 h, fixed RAW264.7 or MDCK cells were washed with media and examined using the same transmitted microscopy conditions as the live cells.

The test system of series [2] is RAW264.7 macrophages. Description: Cell associated mass measurements (bioaccumulation, pmole/cell). The note with it: 72 h incubation, normalized by number of cells. It counts as cell-based. The procedure: Cell Associated Mass Measurements: […] After an overnight incubation (37 °C, 5% CO2), cells were incubated with 100 μL of the media (DMEM with 5% FBS) containing 5 × 10^−6 M clofazmine or its chemical derivatives (2.5 × 10^−6 M of Compound “I”). Media containing each compound was replaced every day during the 72 h incubation. After the incubation, media was removed and cells were washed with Hank's balanced salt solution (HBSS) buffer (No. 14025; Invitrogen) twice. RAW264.7 macrophage cells in buffer were scraped and MDCK epithelial cells were exposed to Trypsin‐EDTA solution for detachment from the plates for cell number counting and quantification of cell‐associated masses. After centrifugation (650 × g), supernatant was removed and cell pellets were resuspended in 0.1 M citric acid/0.1 M trisodium citrate buffer (pH 5) for cell counting as previously reported.7 Equal numbers of cells in 100 μL in buffer were transferred to 96 well plates and 100 μL of detergent (ATCC, 30‐1010K) was added into wells for cell lysis. Chemical absorbance from each well was measured by the UV–vis microplate reader (Synergy 2, BioTek Instruments, Winooski, VT) at 490 nm wavelength and cell‐associated mass of each compound was calculated by a standard curve generated separately using the same media and presented as pmole/cell by normalizing the amount of chemical in each cell population sample by the number of cells in each sample.

Series [3] concerns RAW264.7 macrophages. Description: Linear diattenuation anisotropy microscopy (LC-PolScope) of intracellular inclusions. The conditions noted are these: 72 h, compared with clofazimine. Type of series: cell-based. The procedure: (§1) The optical design was built on a Nikon Eclipse Ti microscope equipped with the liquid crystal universal compensator consisting of a linear polarizer and a pair of liquid crystal devices. The LC compensator was part of the transillumination path and was used to illuminate the specimen with monochromatic, linearly polarized light of varying polarization orientation. There was no polarization analyzer present in the imaging path. Quantitative intensity images were recorded by a charge‐coupled device camera and a desktop computer calculated the average transmittance, the differential transmittance and the polarization orientation leading to maximum transmittance for each optically resolved picture element (pixel). Acquisition and processing steps were controlled using OpenPolScope plugins for the open source imaging programs ImageJ and Micro‐Manager (MMStudio version 1.4.15). With the combination of hardware and software, polarized light images were acquired at high sensitivity and high spatial resolution for measuring linear diattenuation.
(§2) Linear Diattenuation Microscopy Data Acquisition and Analysis: After RAW264.7 macrophages or MDCK epithelial cells were incubated with the compound in the chambered cover glasses for 72 h, at the same time of performing transmitted microscopic examination, cell specimens were examined under linear diattenuation microscopy using the Nikon Eclipse Ti microscope with 40×/0.75 NA objective and monochromatic light of two different center wavelengths, 546 and 623 nm (passband 30 nm). In the OpenPolScope software, Pol‐Acquisition and Pol‐Analyzer plugins (version 2.0) were used to capture, process, and analyze the attenuation images. Before imaging the samples, the setup was calibrated using a specially prepared slide featuring four small pieces of linear polarization filters. The transmission axes of the filters were oriented in steps of 45° providing a means to calibrate the LC universal compensator settings. After the calibration, a sample slide was inserted and first a sequence of polarized light images of a clear, fully transmitting sample area was recorded, followed by an image sequence featuring the cells under investigation. The images of the clear area were used to determine instrument factors which were needed for computing the average and the polarization dependent loss in transmittance in cellular components visible in the second image.10
(§3) Linear diattenuation is a material property that can occur in materials such as crystals, in which the light absorbing molecules are arranged with a preferred orientation. The molecular alignment creates principal axes in the material denoting polarization directions for which light is maximally and minimally transmitted. Diattenuation is the difference between maximal (T max) and minimal (T min) transmittance, divided by their sum (Equation (1)): (1) Diattenuation=Tmax‐Tmin/Tmax+Tmin
(§4) To simultaneously measure the attenuation of many crystals with arbitrary orientations, we developed algorithms based on four specimen images, each recorded using light of a different polarization orientation: 0°, 45°, 90°, and 135°.10 The four raw images were used to calculate the average and differential transmittance and the orientation of maximum transmittance in every resolved image pixel. To isolate and analyze quantitative data of the objects (crystals), the anisotropy or maximum transmittance axis orientation image file opened in ImageJ was inverted (Ctrl + Shift + I) and thresholded using ImageJ's default automatic method (“Binary” → “Convert to Mask”). By using the ImageJ's algorithm, “Analyze Particles,” data of anisotropy or maximum transmittance axis orientation of objects in images could be obtained automatically. Diattenuation ratios were calculated by dividing anisotropy at 623 nm by that at 546 nm.

The test system of another series is MDCK epithelial cells. The description is as above. It counts as cell-based, Canine. The conditions noted are these: 72 h, compared with clofazimine. The method, then:
as §1, §2, §3, §4

Structures are written as SMILES.

As for `COc1ccc(Nc2cc3nc4ccccc4n(-c4ccc(OC)cc4)c-3cc2=NC(C)C)cc1` [A], in the series with RAW264.7 macrophages [1], the Inferred uptake entry is “Slow” and the “Observed cellular staining pattern (Notes)” value was “did not exhibit any intracellular staining pattern”.

Take `CC(C)N=c1cc2n(-c3ccc(C#N)cc3)c3ccccc3nc-2cc1Nc1ccc(C#N)cc1` [B]: in the series with RAW264.7 macrophages [1], the Inferred uptake result is “Very slow” and the “Observed cellular staining pattern (Notes)” value is on record as “formed large extracellular crystals. No intracellular staining pattern”.

As to `CC(C)N=c1cc2n(-c3ccc(-c4ccccc4)cc3)c3ccccc3nc-2cc1Nc1ccc(-c2ccccc2)cc1` [C], in the series with RAW264.7 macrophages [1], the Inferred uptake result was “Slow” and the “Observed cellular staining pattern (Notes)” value is “Very faint, brown perinuclear staining pattern observed across all cells”.

For the molecule `CC(C)N=c1cc2n(-c3ccc(C(F)(F)F)cc3)c3ccccc3nc-2cc1Nc1ccc(C(F)(F)F)cc1` [D], in the series on RAW264.7 macrophages [1], the Inferred uptake entry was “Very slow” and the “Observed cellular staining pattern (Notes)” value is listed as “No intracellular staining pattern observed. Small percentage of cells with orange crystals”.

For `CC(C)N=c1cc2n(-c3ccc(F)cc3)c3ccccc3nc-2cc1Nc1ccc(F)cc1` [E], in the series on RAW264.7 macrophages [1], the Inferred uptake result is “Slow” and the “Observed cellular staining pattern (Notes)” value was “Very faint, brown perinuclear staining pattern observed across all cells”.

Turning to `COCCN=c1cc2n(-c3ccc(Cl)cc3)c3ccccc3nc-2cc1Nc1ccc(Cl)cc1` [H], in the series with RAW264.7 macrophages [1], the Inferred uptake result is recorded as “Moderate”; the “Observed cellular staining pattern (Notes)” value was “Brown staining associated with vesicles/membranes”; the “Cellular staining relative to clofazimine” value was “comparable in morphology and intensity to those of clofazimine”; the “Staining in fixed cells” value is listed as “Fixed cells also exhibited staining”.

Turning to `CCCCN=c1cc2n(-c3ccc(Cl)cc3)c3ccccc3nc-2cc1Nc1ccc(Cl)cc1` [K], in the series on RAW264.7 macrophages [1], the Inferred uptake entry is “Slow” and the “Observed cellular staining pattern (Notes)” value was “Very faint, brown perinuclear staining pattern”.

For the molecule `NC(=O)CCN=c1cc2n(-c3ccc(Cl)cc3)c3ccccc3nc-2cc1Nc1ccc(Cl)cc1` [L], in the series with RAW264.7 macrophages [1], the Inferred uptake result was “Good”, the “Observed cellular staining pattern (Notes)” value is reported as “Small brown inclusions present in live cells” and the “Staining in fixed cells” value is “absent in fixed cells”.

As for `COc1ccc2[nH]cc(CCN=c3cc4n(-c5ccc(Cl)cc5)c5ccccc5nc-4cc3Nc3ccc(Cl)cc3)c2c1` [M], in the series on RAW264.7 macrophages [1], the Inferred uptake result was “Good”; the “Observed cellular staining pattern (Notes)” value was “Orange-brown or purple inclusions present in live cells”; the “Cellular staining relative to clofazimine” value is “comparable in morphology and intensity to those of clofazimine”; the “Staining in fixed cells” value is given as “Staining not observed in fixed cells”.

For the molecule `Clc1ccc(Nc2cc3nc4ccccc4n(-c4ccc(Cl)cc4)c-3cc2=NCCN2CCOCC2)cc1` [N], in the series on RAW264.7 macrophages [1], the Inferred uptake result is on record as “Moderate”, the “Observed cellular staining pattern (Notes)” value is on record as “Faint orange staining pattern associated with perinuclear cytoplasmic vesicles” and the “Staining in fixed cells” value is listed as “Staining not observed in fixed cells”.

Turning to `Oc1ccc(CCN=c2cc3n(-c4ccc(Cl)cc4)c4ccccc4nc-3cc2Nc2ccc(Cl)cc2)cc1O` [O], in the series on RAW264.7 macrophages [1], the Inferred uptake entry was “Good”, the “Observed cellular staining pattern (Notes)” value is “Most of cells have shown faint orange colored vesicles” and the “Staining in fixed cells” value is “Staining not observed in fixed cells”.

On to `Oc1ccc(CCN=c2cc3n(-c4ccc(Cl)cc4)c4ccccc4nc-3cc2Nc2ccc(Cl)cc2)cc1` [Q], for which the Accumulation in macrophages result with RAW264.7 macrophages [2] is listed as “greatest accumulation”. Also, in the series with RAW264.7 macrophages [1], the Inferred uptake entry was “Excellent”, the “Observed cellular staining pattern (Notes)” value is given as “Purple-black dense cytoplasmic inclusions in live cells”, the “Cellular staining relative to clofazimine” value is “more prominent staining patterns” and the “Staining in fixed cells” value is listed as “absent in fixed cells”. In the series on RAW264.7 macrophages [3], the “Diattenuation anisotropy of intracellular inclusions” value (“Diattenuation anisotropy” below) is listed as “higher diattenuation anisotropy”. In the series on MDCK epithelial cells, the “Diattenuation anisotropy” value was “higher diattenuation anisotropy”.

`C[C@H](N=c1cc2n(-c3ccc(Cl)cc3)c3ccccc3nc-2cc1Nc1ccc(Cl)cc1)c1ccccc1` [R]: in the series with RAW264.7 macrophages [1], the Inferred uptake result is recorded as “Good”, the “Observed cellular staining pattern (Notes)” value was “Orange-brown staining pattern associated with perinuclear cytoplasmic vesicles in live cells” and the “Staining in fixed cells” value is “No staining found in Fixed cells”. The “Diattenuation anisotropy” value in the series with RAW264.7 macrophages [3] was “did not yield a measurable, diattenuation anisotropy signal”. In addition, the “Diattenuation anisotropy” value in the series on MDCK epithelial cells was “did not yield a measurable, diattenuation anisotropy signal”.

Turning to `CC(C)C(CO)N=c1cc2n(-c3ccc(Cl)cc3)c3ccccc3nc-2cc1Nc1ccc(Cl)cc1` (stereo not drawn) [V], the Accumulation in macrophages entry in the series on RAW264.7 macrophages [2] was “greatest accumulation”. Further, in the series on RAW264.7 macrophages [1], the Inferred uptake result was “Good”, the “Observed cellular staining pattern (Notes)” value is reported as “Brown crystal-like inclusions appeared in live cells”, the “Cellular staining relative to clofazimine” value is listed as “prominent cellular staining” and the “Staining in fixed cells” value is listed as “Staining not observed in fixed cells”. In addition, the “Diattenuation anisotropy” value with RAW264.7 macrophages [3] is reported as “even higher anisotropy”. Besides, the “Diattenuation anisotropy” value in the series on MDCK epithelial cells was “only in macrophages”.
